According to PubChem BioAssay AID248 (DTP/NCI, 2004):
Values joined by “and” are separate entries in the source; they are usually repeats but may differ in a detail not shown here. Equal entries are not always repeated. Toxic doses and inconclusive results are not listed.

Test system: L1210 leukemia ip in BDF1 mice, survival T/C
Test: NCI In Vivo Anticancer Drug Screen. Data for tumor model L1210 Leukemia (intraperitoneal) in B6D2F1 (BDF1) mice
Conditions: endpoint: mean survival time, higher = longer survival
Summary of the method: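 Value reflects the ratio of survival in compound-treated mice to survival in vehicle-treated controls, with both groups carrying the same transplanted tumor.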

[1] = dose: 100.0 mg/kg/injection, schedule: Q01DX009 (ip), vehicle: Klucel (hydroxypropylcellulose) (HPC)
[2] = dose: 100.0 mg/kg/injection, schedule: Q04DX003 (ip), vehicle: Klucel (hydroxypropylcellulose) (HPC)
[3] = dose: 200.0 mg/kg/injection, schedule: Q01DX009 (ip), vehicle: Klucel (hydroxypropylcellulose) (HPC)
[4] = dose: 200.0 mg/kg/injection, schedule: Q04DX003 (ip), vehicle: Klucel (hydroxypropylcellulose) (HPC)
[5] = dose: 100.0 mg/kg/injection, schedule: Q01DX001 (ip), vehicle: carboxymethylcellulose (CMC)
[6] = dose: 200.0 mg/kg/injection, schedule: Q01DX001 (ip), vehicle: carboxymethylcellulose (CMC)
[7] = dose: 100.0 mg/kg/injection, schedule: Q01DX001 (ip), vehicle: saline
[8] = dose: 200.0 mg/kg/injection, schedule: Q01DX001 (ip), vehicle: saline
[9] = dose: 400.0 mg/kg/injection, schedule: Q01DX001 (ip), vehicle: saline
[10] = dose: 400.0 mg/kg/injection, schedule: Q04DX003 (ip), vehicle: Klucel (hydroxypropylcellulose) (HPC)
[11] = dose: 50.0 mg/kg/injection, schedule: Q01DX001 (ip), vehicle: saline

Compound: O=[N+]([O-])c1c(Cl)ccc2c(Cl)ccnc12
- T/C (dose: 100.0 mg/kg/injection, schedule: Q04DX003 (ip), vehicle: gum acacia): 111 % of control
- T/C (dose: 200.0 mg/kg/injection, schedule: Q04DX003 (ip), vehicle: gum acacia): 91 % of control

Compound: Cc1cnc2cc(Cl)ccc2n1
- T/C (dose: 50.0 mg/kg/injection, schedule: Q01DX009 (ip), vehicle: Klucel (hydroxypropylcellulose) (HPC)): 94 % of control
- T/C [1]: 93 % of control
- T/C [2]: 102 % of control
- T/C [3]: 107 % of control
- T/C [4]: 96 % of control

Compound: CCCCC(=O)N1CCCCC1
- T/C (dose: 50.0 mg/kg/injection, schedule: Q01DX001 (ip), vehicle: carboxymethylcellulose (CMC)): 104 % of control
- T/C (dose: 50.0 mg/kg/injection, schedule: Q01DX009 (ip), vehicle: carboxymethylcellulose (CMC)): 94 % of control and 97 % of control
- T/C (dose: 50.0 mg/kg/injection, schedule: Q04DX003 (ip), vehicle: carboxymethylcellulose (CMC)): 102 % of control
- T/C [5]: 106 % of control
- T/C (dose: 100.0 mg/kg/injection, schedule: Q01DX009 (ip), vehicle: carboxymethylcellulose (CMC)): 94 % of control and 102 % of control
- T/C (dose: 100.0 mg/kg/injection, schedule: Q04DX002 (ip), vehicle: carboxymethylcellulose (CMC)): 98 % of control
- T/C (dose: 100.0 mg/kg/injection, schedule: Q04DX003 (ip), vehicle: carboxymethylcellulose (CMC)): 96 % of control
- T/C [6]: 101 % of control
- T/C (dose: 200.0 mg/kg/injection, schedule: Q01DX009 (ip), vehicle: carboxymethylcellulose (CMC)): 96 % of control and 87 % of control
- T/C (dose: 200.0 mg/kg/injection, schedule: Q04DX002 (ip), vehicle: carboxymethylcellulose (CMC)): 91 % of control
- T/C (dose: 200.0 mg/kg/injection, schedule: Q04DX003 (ip), vehicle: carboxymethylcellulose (CMC)): 97 % of control

Compound: COc1cc(C2=C3C(=O)OC[C@@H]3Cc3cc4c(cc32)OCO4)cc(OC)c1OC
- T/C [7]: 94 % of control
- T/C [1]: 91 % of control
- T/C [2]: 95 % of control
- T/C (dose: 100.0 mg/kg/injection, schedule: Q04DX003 (ip), vehicle: saline): 105 % of control
- T/C [8]: 104 % of control
- T/C [3]: 94 % of control
- T/C [4]: 97 % of control
- T/C (dose: 200.0 mg/kg/injection, schedule: Q04DX003 (ip), vehicle: saline): 96 % of control
- T/C [9]: 93 % of control
- T/C (dose: 400.0 mg/kg/injection, schedule: Q01DX009 (ip), vehicle: Klucel (hydroxypropylcellulose) (HPC)): 96 % of control
- T/C [10]: 92 % of control
- T/C (dose: 400.0 mg/kg/injection, schedule: Q04DX003 (ip), vehicle: saline): 101 % of control

Compound: Cn1c(=O)c2[nH]c(CC3CCCC3)nc2n(C)c1=O
- T/C [11]: 104 % of control
- T/C [7]: 104 % of control
- T/C [8]: 101 % of control
- T/C [9]: 95 % of control

Compound: O=C(O)C1C2CCC(O2)C1C(=O)Nc1ccccc1 (stereo not given)
- T/C (dose: 75.0 mg/kg/injection, schedule: Q01DX001 (ip), vehicle: carboxymethylcellulose (CMC)): 102 % of control
- T/C (dose: 150.0 mg/kg/injection, schedule: Q01DX001 (ip), vehicle: carboxymethylcellulose (CMC)): 102 % of control
- T/C (dose: 300.0 mg/kg/injection, schedule: Q01DX001 (ip), vehicle: carboxymethylcellulose (CMC)): 101 % of control

Compound: CSC(=NC#N)SC
- T/C (dose: 1.5 mg/kg/injection, schedule: Q01DX009 (ip), vehicle: Klucel (hydroxypropylcellulose) (HPC)): 100 % of control
- T/C (dose: 1.5 mg/kg/injection, schedule: Q04DX003 (ip), vehicle: Klucel (hydroxypropylcellulose) (HPC)): 100 % of control
- T/C (dose: 3.0 mg/kg/injection, schedule: Q01DX009 (ip), vehicle: Klucel (hydroxypropylcellulose) (HPC)): 101 % of control
- T/C (dose: 3.0 mg/kg/injection, schedule: Q04DX003 (ip), vehicle: Klucel (hydroxypropylcellulose) (HPC)): 90 % of control
- T/C (dose: 6.0 mg/kg/injection, schedule: Q01DX009 (ip), vehicle: Klucel (hydroxypropylcellulose) (HPC)): 95 % of control
- T/C (dose: 6.0 mg/kg/injection, schedule: Q04DX003 (ip), vehicle: Klucel (hydroxypropylcellulose) (HPC)): 97 % of control

Compound: C/C=C/C=N/NC(=O)c1ccc[n+](C)c1
- T/C (dose: 50.0 mg/kg/injection, schedule: Q01DX009 (ip), vehicle: saline): 112 % of control
- T/C (dose: 100.0 mg/kg/injection, schedule: Q01DX009 (ip), vehicle: saline): 104 % of control
- T/C (dose: 200.0 mg/kg/injection, schedule: Q01DX009 (ip), vehicle: saline): 112 % of control

Compound: Nc1ccc(Cc2ccc(N)c(Cl)c2)cc1Cl
- T/C [2]: 100 % of control
- T/C [4]: 91 % of control
- T/C [10]: 100 % of control

Compound: O=[N+]([O-])c1ccc(Cl)c(OCCCCOc2ccc(S(=O)(=O)F)cc2)c1
- T/C [2]: 90 % of control
- T/C [4]: 94 % of control

Compound: CC(=O)CC=NCCN=CCC(C)=O
- T/C (dose: 100.0 mg/kg/injection, schedule: Q01DX001 (ip), vehicle: saline with Tween-80): 98 % of control
- T/C (dose: 200.0 mg/kg/injection, schedule: Q01DX001 (ip), vehicle: saline with Tween-80): 103 % of control
- T/C (dose: 400.0 mg/kg/injection, schedule: Q01DX001 (ip), vehicle: saline with Tween-80): 95 % of control

Compound: Cc1ccc(S(=O)(=O)NC(CCl)=NC2CCCCC2)cc1
- T/C (dose: 100.0 mg/kg/injection, schedule: Q04DX002 (ip), vehicle: Klucel (hydroxypropylcellulose) (HPC)): 96 % of control
- T/C (dose: 200.0 mg/kg/injection, schedule: Q04DX002 (ip), vehicle: Klucel (hydroxypropylcellulose) (HPC)): 100 % of control
- T/C (dose: 400.0 mg/kg/injection, schedule: Q04DX002 (ip), vehicle: Klucel (hydroxypropylcellulose) (HPC)): 103 % of control

Compound: O=C(CCl)Nc1ncc([N+](=O)[O-])s1
- T/C (dose: 12.5 mg/kg/injection, schedule: Q04DX003 (ip), vehicle: saline with Tween-80): 94 % of control
- T/C (dose: 25.0 mg/kg/injection, schedule: Q04DX003 (ip), vehicle: saline with Tween-80): 91 % of control
- T/C (dose: 50.0 mg/kg/injection, schedule: Q04DX003 (ip), vehicle: saline with Tween-80): 87 % of control

Compound: O=C(/C=C/C=C/c1cccc([N+](=O)[O-])c1)CCl
- T/C [7]: 101 % of control
- T/C [8]: 95 % of control
- T/C [9]: 103 % of control

Compound: S=P(S)(c1ccccc1)c1ccccc1
- T/C (dose: 100.0 mg/kg/injection, schedule: Q04DX003 (ip), vehicle: saline with Tween-80): 91 % of control
- T/C (dose: 200.0 mg/kg/injection, schedule: Q04DX003 (ip), vehicle: saline with Tween-80): 94 % of control
- T/C (dose: 400.0 mg/kg/injection, schedule: Q04DX003 (ip), vehicle: saline with Tween-80): 100 % of control

Compound: N#CC(Cc1ccccc1)C(=O)O (stereo not given)
- T/C (dose: 50.0 mg/kg/injection, schedule: Q01DX Z (ip), vehicle: saline): 106 % of control
- T/C (dose: 100.0 mg/kg/injection, schedule: Q01DX Z (ip), vehicle: saline): 102 % of control
- T/C (dose: 200.0 mg/kg/injection, schedule: Q01DX Z (ip), vehicle: saline): 91 % of control

Compound: OCC1OC(n2cnc3c(=S)nc(NO)[nH]c32)C(O)C1O (stereo not given)
- T/C (dose: 12.5 mg/kg/injection, schedule: Q01DX005 (ip), vehicle: saline): 165 % of control
- T/C (dose: 50.0 mg/kg/injection, schedule: Q01DX005 (ip), vehicle: saline): 88 % of control
- T/C (dose: 100.0 mg/kg/injection, schedule: Q01DX005 (ip), vehicle: saline): 107 % of control

Compound: CC(=O)Nc1c(Br)cc2c(c1Br)Cc1cc(Br)ccc1-2
- T/C [5]: 111 % of control
- T/C [6]: 97 % of control
- T/C (dose: 400.0 mg/kg/injection, schedule: Q01DX001 (ip), vehicle: carboxymethylcellulose (CMC)): 108 % of control

Compound: O=C(O)C(=O)O.[Co+3].[NH-]C(Cc1ccccc1)C(=O)[O-].[NH-]CCN(CC[NH-])CC[NH-] (stereo not given)
- T/C [11]: 110 % of control
- T/C [7]: 105 % of control
- T/C [8]: 104 % of control
- T/C [9]: 102 % of control

Compound: COc1cc(=O)n2cc(C)ccc2n1
- T/C [11]: 98 % of control
- T/C [7]: 101 % of control
- T/C [8]: 95 % of control
- T/C [9]: 90 % of control

Compound: CCOC/C=C\c1ccccc1
- T/C (dose: 50.0 mg/kg/injection, schedule: Q01DX009 (ip), vehicle: saline with Tween-80): 95 % of control
- T/C (dose: 100.0 mg/kg/injection, schedule: Q01DX009 (ip), vehicle: saline with Tween-80): 92 % of control
- T/C (dose: 200.0 mg/kg/injection, schedule: Q01DX009 (ip), vehicle: saline with Tween-80): 92 % of control

Compound: Cc1ccc(Nc2ccc(Nc3ccc(C)cc3)c3c2C(=O)c2c(O)ccc(O)c2C3=O)cc1
- T/C (dose: 200.0 mg/kg/injection, schedule: Q01DX001 (ip), vehicle: Klucel (hydroxypropylcellulose) (HPC)): 90 % of control
- T/C (dose: 400.0 mg/kg/injection, schedule: Q01DX001 (ip), vehicle: Klucel (hydroxypropylcellulose) (HPC)): 97 % of control

Compound: N#Cc1c(Cl)nsc1Cl
- T/C [1]: 97 % of control
- T/C [3]: 102 % of control
